{
  "source": "paper PMC10600239",
  "about": "“Selective MCL-1 inhibitor ABBV-467 is efficacious in tumor models but is associated with cardiac troponin increases in patients” (Communications Medicine, 2023)",
  "test_system": "AMO-1 xenografts",
  "experiment": "AMO-1 xenograft efficacy (tumor volume, body weight); as to Mortality Observation Day 34: key: EUTV: Euthanized: tumor volume",
  "type": "in vivo, mouse",
  "set-up": "key to Anti-tumor Activity vs. AMO-1 (DSMZ), Median / Anti-tumor Activity vs. AMO-1 (DSMZ), individual animal / Anti-tumor Activity vs. AMO-1 (DSMZ), Mean: tumor volume in mm^3 (length × width^2/2)",
  "description": "All animal studies were conducted in accordance with the guidelines approved by the Institutional Animal Care and Use Committees of AbbVie. The research protocol was approved by In Vivo Pharmacology at AbbVie prior to study initiation but was not publicly registered or disclosed. Female C.B-17 SCID-beige mice (AMO-1, OPM-2, NCI-H929, and OCI-AML2 xenografts) and female NSG mice (MV4-11-Red.Fluc systemic) were purchased from Charles River Laboratories (Wilmington, MA). Animals were housed in a light cycle-controlled room with HEPA filtration at 22 °C. Animals had nesting and climbing cage topper as the primary environmental enrichment. Animals were inoculated subcutaneously in the right flank with 5 × 10^6 (AMO-1, OPM-2, NCI-H929, and OCI-AML2) or intravenous (IV) with 5 × 10^6 (MV4-11-Red.Fluc). The inoculation volume (0.2 mL) comprised a 50:50 mixture of cells in growth media and Matrigel (BD Biosciences) for subcutaneous injections and 100% phosphate-buffered saline for IV administration. All cell lines used in this publication were authenticated using IDEXX for STR profiling as well as their IMPACT and human IMPACT panels for pathogen screening. Electronic calipers were used to measure the length and width of each tumor 2 to 3 times per week. Tumor volume was estimated by applying the following equation: volume = length × width^2/2. All groups remained blinded during measurements and dosing; only veterinary staff were aware of group identity. When tumors reached approximately 200 mm^3, mice were randomized by match and distributed into treatment and control groups. All xenograft trials were conducted using 5 to 10 mice per group, and all mice were ear tagged and monitored individually throughout the studies. […] Tumor burden in the systemic MV4-11-Red.Fluc experiment was measured using an IVIS® spectrum from PerkinElmer by taking the total photon flux of the entire dorsal side of an individual mouse. […] A background control mouse that was tumor naive but received D-Luciferin was placed in the upper left corner of each image. The total flux from this animal was subtracted from the total flux of each animal present in the image.\nFor in vivo studies, maximal tumor growth inhibition (TGI) was calculated as the greatest treatment response using the following equation: Maximal TGI = (1 − mean tumor volume of the treated group/mean tumor volume of the vehicle control group) × 100. The tumor growth delay (TGD) percentage was determined as the percentage increase of the median time period for the treatment group to reach an arbitrary tumor volume of 1000 mm^3 relative to the vehicle control group. […] A power analysis was conducted using historical data to determine the number of animals required to yield significance of 0.05 at a 30% difference. […] Data from experiments in vivo were analyzed using the student’s t-test for TGI values and the Mann–Whitney U test for TGD using Excel and GraphPad Prism. Fisher’s exact test was used to probe significance of differences in response frequency.",
  "key": {"[1]": {"conditions": "3.13 mg/kg QDx1 IV, Day 28, n=8"}, "[2]": {"conditions": "3.13 mg/kg QDx1 IV, SCID-beige mice, Day 21"}, "[3]": {"conditions": "3.13 mg/kg QDx1 IV, SCID-beige mice, Day 23"}, "[4]": {"conditions": "3.13 mg/kg QDx1 IV, SCID-beige mice, Day 23, mean(T)/mean(C)"}, "[5]": {"conditions": "3.13 mg/kg QDx1 IV, SCID-beige mice, Day 23, median(T)/median(C)"}},
  "note": "“And” between values parts separate entries of the source, which are not always exact repeats. Equal entries are not always repeated.",
  "data": [
    {"smiles": "Cc1c(Cl)c2c(Cl)c(C)c1-c1c(-c3ccc(F)cc3)sc3ncnc(c13)O[C@@H](C(=O)O)Cc1cc(ccc1OCc1ccnc(-c3ccc(OC[C@H]4COCCO4)cc3)n1)OC[C@@H](CN1CCN(C)CC1)O2", "note": "[Compound A-1747745.0]", "values": [
      {"measurement": "% T/C (mean) tumor volume Day 26", "setting": "3.13 mg/kg QDx1 IV, Day 26, mean(T)/mean(C)", "result": 46.99, "unit": "%"},
      {"measurement": "% T/C (median) tumor volume Day 26", "setting": "3.13 mg/kg QDx1 IV, Day 26, median(T)/median(C)", "result": 47.41, "unit": "%"},
      {"measurement": "Xenograft AMO-1 (DSMZ) tumor volume Day 28, Mean", "setting": "[1]", "result": 1102.63, "unit": "mm³"},
      {"measurement": "Xenograft AMO-1 (DSMZ) tumor volume Day 28, Median", "setting": "[1]", "result": 1024.93, "unit": "mm³"},
      {"measurement": "% T/C (mean) tumor volume Day 28", "setting": "3.13 mg/kg QDx1 IV, Day 28, mean(T)/mean(C)", "result": 53.81, "unit": "%"},
      {"measurement": "% T/C (median) tumor volume Day 28", "setting": "3.13 mg/kg QDx1 IV, Day 28, median(T)/median(C)", "result": 53.13, "unit": "%"},
      {"measurement": "Xenograft AMO-1 (DSMZ) tumor volume Day 26, individual animals", "setting": "3.13 mg/kg QDx1 IV, SCID-beige female mice, Day 26", "result": "859 mm³ and 654 mm³ and 702 mm³ and 664 mm³ and 464 mm³ and 884 mm³ and 882 mm³ and 812 mm³"},
      {"measurement": "Xenograft AMO-1 (DSMZ) tumor volume Day 28, individual animals", "setting": "3.13 mg/kg QDx1 IV, SCID-beige female mice, Day 28", "result": "1383 mm³ and 753 mm³ and 968 mm³ and 881 mm³ and 872 mm³ and 1157 mm³ and 1725 mm³ and 1082 mm³"},
      {"measurement": "Xenograft AMO-1 (DSMZ) Day 21, Mean", "setting": "[2]", "result": 316.72, "unit": "mm³"},
      {"measurement": "Xenograft AMO-1 (DSMZ) Day 21, Median", "setting": "[2]", "result": 336.29, "unit": "mm³"},
      {"measurement": "Xenograft AMO-1 (DSMZ) (mm³) Day 21, individual animals", "setting": "3.13 mg/kg QDx1 IV, SCID-beige mice, Day 21, individual tumor volumes", "result": "248 mm³ and 370 mm³ and 418 mm³ and 238 mm³ and 111 mm³ and 349 mm³ and 477 mm³ and 324 mm³"},
      {"measurement": "% T/C (mean), Tumor Volume Day 21", "setting": "3.13 mg/kg QDx1 IV, SCID-beige mice, Day 21, mean(T)/mean(C)", "result": 49.55, "unit": "%"},
      {"measurement": "% T/C (median), Tumor Volume Day 21", "setting": "3.13 mg/kg QDx1 IV, SCID-beige mice, Day 21, median(T)/median(C)", "result": 63.86, "unit": "%"},
      {"measurement": "Xenograft AMO-1 (DSMZ) Day 23 Mean", "setting": "[3]", "result": 463.98, "unit": "mm³"},
      {"measurement": "Xenograft AMO-1 (DSMZ) Day 23 Median", "setting": "[3]", "result": 467.27, "unit": "mm³"},
      {"measurement": "Xenograft AMO-1 (DSMZ) (mm³) Day 23, individual animals", "setting": "3.13 mg/kg QDx1 IV, SCID-beige mice, Day 23, individual tumor volumes", "result": "595 mm³ and 419 mm³ and 553 mm³ and 359 mm³ and 205 mm³ and 462 mm³ and 647 mm³ and 473 mm³"},
      {"measurement": "% T/C (mean), body weight Day 23", "setting": "[4]", "result": 104.12, "unit": "%"},
      {"measurement": "% T/C (mean), tumor volume Day 23", "setting": "[4]", "result": 43.45, "unit": "%"},
      {"measurement": "% T/C (median), body weight Day 23", "setting": "[5]", "result": 104.12, "unit": "%"},
      {"measurement": "% T/C (median), tumor volume Day 23", "setting": "[5]", "result": 48.01, "unit": "%"},
      {"measurement": "Xenograft AMO-1 (DSMZ) (mm³) Day 30 (individual animals)", "setting": "3.13 mg/kg QDx1 IV, Day 30, SCID-beige female mice, tumor volume per animal", "result": "1812 mm³ and 984 mm³ and 1324 mm³ and 1150 mm³ and 1149 mm³ and 1537 mm³ and 1916 mm³ and 1649 mm³"},
      {"measurement": "Xenograft AMO-1 (DSMZ) (mm³) Day 30 Mean", "setting": "3.13 mg/kg QDx1 IV, Day 30, group mean", "result": 1440.23, "unit": "mm³"},
      {"measurement": "Xenograft AMO-1 (DSMZ) (mm³) Day 30 Median", "setting": "3.13 mg/kg QDx1 IV, Day 30, group median", "result": 1430.49, "unit": "mm³"},
      {"measurement": "Xenograft AMO-1 (DSMZ) (mm³) Day 34 (individual animals)", "setting": "3.13 mg/kg QDx1 IV, Day 34, SCID-beige female mice, tumor volume per animal", "result": "2874 mm³ and 1660 mm³ and 1699 mm³ and 1719 mm³ and 1802 mm³ and 2605 mm³ and 2742 mm³ and 2768 mm³"},
      {"measurement": "Xenograft AMO-1 (DSMZ) (mm³) Day 34 Mean", "setting": "3.13 mg/kg QDx1 IV, Day 34, group mean", "result": 2233.47, "unit": "mm³"},
      {"measurement": "Xenograft AMO-1 (DSMZ) (mm³) Day 34 Median", "setting": "3.13 mg/kg QDx1 IV, Day 34, group median", "result": 2203.67, "unit": "mm³"},
      {"measurement": "Mortality Observation Day 34", "setting": "3.13 mg/kg QDx1 IV, Day 34, per animal", "result": "EUTV"},
      {"measurement": "Starting Body Wt.", "setting": "6.25 mg/kg IV QDx1, AMO-1 xenograft, SCID-beige mice, in g (unit assumed)", "result": 21.625},
      {"measurement": "% Mortality", "setting": "6.25 mg/kg IV QDx1, clinical observation", "result": 100.00, "unit": "%"},
      {"measurement": "Anti-tumor Activity vs. AMO-1 (DSMZ), Mean", "setting": "6.25 mg/kg IV QDx1, day 13", "result": 216.25},
      {"measurement": "Anti-tumor Activity vs. AMO-1 (DSMZ), Median", "setting": "6.25 mg/kg IV QDx1, day 13", "result": 216.39},
      {"measurement": "Group Mean, Body Weight", "setting": "6.25 mg/kg IV QDx1, day 14", "result": 21.63, "unit": "g"},
      {"measurement": "Anti-tumor Activity vs. AMO-1 (DSMZ), Mean", "setting": "6.25 mg/kg IV QDx1, day 16", "result": 172.06},
      {"measurement": "Anti-tumor Activity vs. AMO-1 (DSMZ), Median", "setting": "6.25 mg/kg IV QDx1, day 16", "result": 173.79},
      {"measurement": "Anti-tumor Activity vs. AMO-1 (DSMZ), Mean", "setting": "6.25 mg/kg IV QDx1, day 19", "result": 133.62},
      {"measurement": "Anti-tumor Activity vs. AMO-1 (DSMZ), Median", "setting": "6.25 mg/kg IV QDx1, day 19", "result": 134.81},
      {"measurement": "Anti-tumor Activity vs. AMO-1 (DSMZ), Mean", "setting": "6.25 mg/kg IV QDx1, day 21", "result": 175.92},
      {"measurement": "Anti-tumor Activity vs. AMO-1 (DSMZ), Median", "setting": "6.25 mg/kg IV QDx1, day 21", "result": 202.13},
      {"measurement": "Anti-tumor Activity vs. AMO-1 (DSMZ), Mean", "setting": "6.25 mg/kg IV QDx1, day 23", "result": 218.85}
    ]}
  ]
}
